The results in this text go back to US9765087B2, “Benzimidazole derivatives” (ENANTA PHARMACEUTICALS, INC., priority 2009, dated 2017).

pEC50: −log10 of the molar value.

The experiment concerns HCV 1b genotype replicon. Kind of experiment: HCV replicon assay (qRT-PCR or luciferase), genotype 1b. In kind it is cell-based. Particulars: Hepatitis C virus, Table 11, qRT-PCR or luciferase assay, read-out: Genotype-1b replicon EC50 Range. From the text:
HCV replicon cell lines (kindly provided by R. Bartenschlager) isolated from colonies as described by Lohman et. al. (Lohman et al. (1999) Science 285: 110-113, expressly incorporated by reference in its entirety) and used for all experiments. The HCV replicon has the nucleic acid sequence set forth in EMBL Accession No.: AJ242651, the coding sequence of which is from nucleotides 1801 to 8406.
The coding sequence of the published HCV replicon was synthesized and subsequently assembled in a modified plasmid pBR322 (Promega, Madison, Wis.) using standard molecular biology techniques. One replicon cell line (“SGR 11-7”) stably expresses HCV replicon RNA which consists of (i) the HCV 5′UTR fused to the first 12 amino acids of the capsid protein, (ii) the neomycin phosphotransferase gene (neo), (iii) the IRES from encephalomyocarditis virus (EMCV), and (iv) HCV […] to NSSB genes and the HCV 3′UTR. Another replicon cell line (“Huh-luc/neo-ET”) described by Vrolijk et. al. (Vrolijk et. al. (2003) Journal of Virological Methods 110:201-209, expressly incorporated by reference in its entirety) stably expresses HCV replicon RNA which consists of (i) the HCV 5′UTR fused to the first 12 amino acids of the capsid protein, (ii) the firefly luciferase reporter gene, (iii) the ubiquitin gene, (iv) the neomycin phosphotransferase gene (neo), (v) the IRES from encephalomyocarditis virus (EMCV), and (vi) HCV NS3 to NS5B genes that harbor cell culture adaptive mutations (E1202G, T1280I, K1846T) and the HCV 3′UTR.
These cell lines were maintained at 37° C., 5% CO2, 100% relative humidity in DMEM (Cat#11965-084, Invitrogen), with 10% fetal calf serum (“FCS”, Invitrogen), 1% non-essential amino acids (Invitrogen), 1% of Glutamax (Invitrogen), 1% of 100× penicillin/streptomycin (Cat#15140-122, Invitrogen) and Geneticin (Cat#10131-027, Invitrogen) at 0.75 mg/ml or 0.5 mg/ml for 11-7 and Huh-luc/neo-ET cells, respectively.
EC50 values of single agent compounds and combinations were determined by HCV RNA detection using quantitative RT-PCR, according to the manufacturer's instructions, with a TAQMAN® One-Step RT-PCR Master Mix Reagents Kit (Cat#AB 4309169, Applied Biosystems) on an ABI Model 7500 thermocycler. The TaqMan primers used for detecting and quantifying HCV RNA were obtained from Integrated DNA Technologies. HCV RNA was normalized to GAPDH RNA levels in drug-treated cells, which is detected and quantified using the Human GAPDH Endogenous Control Mix (Applied Biosystems, AB 4310884E). Total cellular RNA is purified from 96-well plates using the RNAqueous 96 kit (Ambion, Cat# AM1812). Chemical agent cytotoxicity is evaluated using an MTS assay according to the manufacturer's directions (Promega).
Since clinical drug resistance often develops in viral infections following single agent therapies, there is a need to assess the additive, antagonistic, or synergistic properties of combination therapies. We used the HCV replicon system to assess the potential use of the compound of the present invention or in combination therapies with Interferon alpha, cyclosporine analogs and inhibitors targeting other HCV proteins. The acute effects of a single or combinations of drugs are studied in the “Huh-luc/neo-ET” replicon with each chemical agent titrated in an X or Y direction in a 6 point two-fold dilution curve centered around the EC50 of each drug. Briefly, replicon cells are seeded at 7,000 cells per well in 90 ul DMEM (without phenol red, Invitrogen Cat.#31053-036) per well with 10% FCS, 1% non-essential amino acids, 1% of Glutamax and 1% of 100× penicillin/streptomycin and incubated overnight at 37° C., 5% CO2, 100% relative humidity. […]
Regarding `COC(=O)N[C@H](C(=O)N1CCC[C@H]1c1nc(-c2ccc(C#Cc3ccc4[nH]c([C@@H]5CC(=O)CN5C(=O)[C@@H](NC(=O)OC)C(C)C)nc4c3)cc2)c[nH]1)C(C)C` [Example 486], the pEC50 is above 9.00.

On to `[2H]c1c([2H])c(-c2c[nH]c([C@@H]3CCCN3C(=O)[C@@H](NC(=O)OC)C(C)C)n2)c([2H])c([2H])c1C#Cc1ccc2[nH]c([C@@H]3CCCN3C(=O)[C@@H](NC(=O)OC)C(C)C)nc2c1` [Example 488], for which the pEC50 is above 9.00.

With `COC(=O)N[C@H](C(=O)N1CCC[C@H]1c1nc(-c2ccc3cc(-c4cc5nc([C@@H]6CCCN6C(=O)[C@@H](NC(=O)OC)C(C)C)[nH]c5cc4Cl)ccc3c2)c[nH]1)C(C)C` [Example 490], the pEC50 was above 9.00. Take `COC(=O)N[C@H](C(=O)N1CCC[C@H]1c1nc(-c2ccc(/C=C/c3ccc4[nH]c([C@@H]5CCCN5C(=O)[C@@H](NC(=O)OC)C(C)C)nc4c3)cc2)c[nH]1)C(C)C` [Example 492]: the pEC50 was above 9.00. Consider `C=C(c1ccc(-c2c[nH]c([C@@H]3CCCN3C(=O)[C@@H](NC(=O)OC)C(C)C)n2)cc1)c1ccc2nc([C@@H]3CCCN3C(=O)[C@@H](NC(=O)OC)C(C)C)[nH]c2c1` [Example 493], for which the negative-log EC50 (pEC50) was above 9.00. Take `COC(=O)N[C@H](C(=O)N1CCC[C@H]1c1nc(-c2ccc(CCc3ccc4[nH]c([C@@H]5CCCN5C(=O)[C@@H](NC(=O)OC)C(C)C)nc4c3)cc2)c[nH]1)C(C)C` [Example 494]: the pEC50 was above 9.00. Take `COC(=O)N[C@H](C(=O)N1CCC[C@H]1c1ncc(-c2ccc([C@H]3C[C@@H]3c3ccc4nc([C@@H]5CCCN5C(=O)[C@@H](NC(=O)OC)C(C)C)[nH]c4c3)cc2)[nH]1)C(C)C` [Example 497-a]: the pEC50 is above 9.00. In the case of `COC(=O)N[C@H](C(=O)N1CCC[C@H]1c1ncc(-c2ccc([C@@H]3C[C@H]3c3ccc4nc([C@@H]5CCCN5C(=O)[C@@H](NC(=O)OC)C(C)C)[nH]c4c3)cc2)[nH]1)C(C)C` [Example 497-b], the pEC50 is above 9.00. For the compound `COC(=O)N[C@H](C(=O)N1CCC[C@H]1c1ncc(-c2ccc(-c3ccc(-c4ccc5nc([C@@H]6CCCN6C(=O)[C@@H](NC(=O)OC)C(C)C)[nH]c5c4)cc3)cc2)[nH]1)C(C)C` [Example 499], the pEC50 was above 9.00. Take `COC(=O)N[C@H](C(=O)N1CCC[C@H]1c1nc(-c2ccc(C#Cc3ccc4[nH]c([C@@H]5CCCN5C(=O)OC(C)(C)C)nc4c3)cc2)c[nH]1)C(C)C` [Example 500]: the pEC50 was 8.00 to 9.00. With `COC(=O)N[C@@H](C)C(=O)N1CCC[C@H]1c1nc2cc(C#Cc3ccc(-c4c[nH]c([C@@H]5CCCN5C(=O)[C@@H](NC(=O)OC)C(C)C)n4)cc3)ccc2[nH]1` [Example 501], the pEC50 is above 9.00. The value for `CC[C@H](NC(=O)OC)C(=O)N1CCC[C@H]1c1nc2cc(C#Cc3ccc(-c4c[nH]c([C@@H]5CCCN5C(=O)[C@@H](NC(=O)OC)C(C)C)n4)cc3)ccc2[nH]1` [Example 502] was above 9.00. `CCC[C@H](NC(=O)OC)C(=O)N1CCC[C@H]1c1nc2cc(C#Cc3ccc(-c4c[nH]c([C@@H]5CCCN5C(=O)[C@@H](NC(=O)OC)C(C)C)n4)cc3)ccc2[nH]1` [Example 503]: the pEC50 was above 9.00. For `COC(=O)N[C@H](C(=O)N1CCC[C@H]1c1nc(-c2ccc(C#Cc3ccc4[nH]c([C@@H]5CCCN5C(=O)[C@H](NC(=O)OC)c5ccccc5)nc4c3)cc2)c[nH]1)C(C)C` [Example 504], the negative logarithm of the EC50 (pEC50) was above 9.00. With `COC(=O)N[C@H](C(=O)N1CCC[C@H]1c1nc(-c2ccc(C#Cc3ccc4[nH]c([C@@H]5CCCN5C(=O)[C@@H](NC(=O)OC)[C@@H](C)OC)nc4c3)cc2)c[nH]1)C(C)C` [Example 505], the pEC50 is above 9.00.

In the case of `COC(=O)N[C@H](C(=O)N1CCC[C@H]1c1nc(-c2ccc(C#Cc3ccc4[nH]c([C@@H]5CCCN5C(=O)[C@@H](NC(C)=O)C(C)C)nc4c3)cc2)c[nH]1)C(C)C` [Example 506], the pEC50 is above 9.00. With `COC(=O)N[C@H](C(=O)N1CCC[C@H]1c1nc(-c2ccc(C#Cc3ccc4[nH]c([C@@H]5CCCN5C(=O)[C@@H](c5ccccc5)C(C)C)nc4c3)cc2)c[nH]1)C(C)C` [Example 507], the negative-log EC50 (pEC50) was above 9.00. For the compound `COC(=O)N[C@H](C(=O)N1CCC[C@H]1c1nc(-c2ccc(C#Cc3ccc4[nH]c([C@@H]5CCCN5C(=O)[C@H](NC(=O)OC)C(C)C)nc4c3)cc2)c[nH]1)C(C)C` [Example 508], the pEC50 is above 9.00.

Regarding `COC(=O)N[C@H](C(=O)N1CCC[C@H]1c1nc2cc(C#Cc3ccc(-c4c[nH]c([C@@H]5CCCN5C(=O)[C@@H](NC(=O)OC)C(C)C)n4)cc3)ccc2[nH]1)c1ccccc1` [Example 509], the negative-log EC50 (pEC50) was above 9.00.

Take `COC(=O)N[C@H](C(=O)N1CCC[C@H]1c1nc2cc(C#Cc3ccc(-c4c[nH]c([C@@H]5CCCN5C(=O)OC(C)(C)C)n4)cc3)ccc2[nH]1)C(C)C` [Example 510]: the pEC50 was above 9.00.

With `COC(=O)N[C@H](C(=O)N1CCC[C@H]1c1nc2cc(C#Cc3ccc(-c4c[nH]c([C@@H]5CCCN5C(=O)[C@@H](NC(C)=O)C(C)C)n4)cc3)ccc2[nH]1)C(C)C` [Example 511], the pEC50 is above 9.00. For `COC(=O)N[C@H](C(=O)N1CCC[C@H]1c1nc2cc(C#Cc3ccc(-c4c[nH]c([C@@H]5CCCN5C(=O)[C@@H](c5ccccc5)C(C)C)n4)cc3)ccc2[nH]1)C(C)C` [Example 512], the pEC50 was above 9.00. Consider `COC(=O)N[C@H](C(=O)N1CCC[C@H]1c1nc2cc(C#Cc3ccc(-c4c[nH]c([C@@H]5CCCN5C(=O)[C@H](NC(=O)OC)C(C)C)n4)cc3)ccc2[nH]1)C(C)C` [Example 513], for which the pEC50 was above 9.00. For the compound `COC(=O)N[C@H](C(=O)N1CCC[C@H]1c1nc(-c2ccc(C#Cc3ccc4[nH]c([C@@H]5CCCN5C(=O)[C@@H](NC(=O)OC)C(C)C)nc4c3)cc2)c[nH]1)c1ccccc1` [Example 514], the negative-log EC50 (pEC50) is above 9.00. `COC(=O)N[C@H](C(=O)N1CCC[C@H]1c1ncc(-c2ccc(C#Cc3ccc4nc([C@@H]5CCCN5C(=O)[C@@H](NC(=O)OC)C(C)C)[nH]c4c3)cc2)[nH]1)C(C)C` [Example 515]: the negative logarithm of the EC50 (pEC50) is above 9.00.

As to `COC(=O)N[C@H](C(=O)N1CCC[C@H]1c1nc(-c2ccc(C#Cc3ccc4[nH]c([C@@H]5C[C@@H](O)CN5C(=O)[C@@H](NC(=O)OC)C(C)C)nc4c3)cc2)c[nH]1)C(C)C` [Example 517], the negative logarithm of the EC50 (pEC50) was above 9.00. With `COC(=O)N[C@H](C(=O)N1CCC[C@H]1c1nc(-c2ccc(C#Cc3ccc4[nH]c([C@@H]5CC(F)(F)CN5C(=O)[C@@H](NC(=O)OC)C(C)C)nc4c3)cc2)c[nH]1)C(C)C` [Example 519], the pEC50 was above 9.00. For the compound `COC(=O)N[C@H](C(=O)N1CCC[C@H]1c1nc(-c2ccc(C#Cc3ccc4[nH]c([C@@H]5CC6(CC6)CN5C(=O)[C@@H](NC(=O)OC)C(C)C)nc4c3)cc2)c[nH]1)C(C)C` [Example 521], the pEC50 is above 9.00. In the case of `COC(=O)N[C@H](C(=O)N1CC2(CC2)C[C@H]1c1nc(-c2ccc(C#Cc3ccc4[nH]c([C@@H]5CCCN5C(=O)[C@@H](NC(=O)OC)C(C)C)nc4c3)cc2)c[nH]1)C(C)C` [Example 523], the pEC50 is above 9.00. As for `COC(=O)N[C@H](C(=O)N1CC2(CC2)C[C@H]1c1nc(-c2ccc(C#Cc3ccc4[nH]c([C@@H]5CC6(CC6)CN5C(=O)[C@@H](NC(=O)OC)C(C)C)nc4c3)cc2)c[nH]1)C(C)C` [Example 525], the pEC50 is above 9.00.

In the case of `CC[C@H](C)[C@H](NC(=O)OC)C(=O)N1CCC[C@H]1c1ncc(-c2ccc(C#Cc3ccc4nc([C@@H]5CCCN5C(=O)[C@@H](NC(=O)OC)[C@@H](C)CC)[nH]c4c3)cc2)[nH]1` [Example 526], the pEC50 is above 9.00.
